These results are taken from US20230090691A1, “COMPOSITIONS AND METHODS FOR PROMOTING AND/OR MAINTAINING VAGINOVULVAL AND PERIANAL TISSUE VITALITY AND TISSUE HEALTH” (SPINART, LLC, priority 2021, published 2023).

Assay [1] relates to urogenital atrophy in breast cancer patients. To be noted: study of 46 patients; compared to saline; cited from earlier work.
The test system of assay [2] is human keratinocytes (HaCaT). The assay is described as follows: Wound-healing (scratch) assay. It is filed as cell-based. Particulars: for wound area Basal (0 h): 20 ng/ml wells, immediately after wounding; for wound area Basal (0 h) / % area wound 24 h / % relative Area to Control 24 h / % wound healing 24 h / wound area 24 h: replicates; for wound healing enhanced, compared to the untreated control / Decreased wound area / % area wound 24 h / % relative Area to Control 24 h / % wound healing 24 h / wound area 24 h: 20 ng/ml; for wound healing enhanced, compared to the untreated control: 24 hours; for Decreased wound area: 24 hr. The text has this: An in vitro scratch assay was used to study cell migration in vitro. [Todaro, G J et al. The initiation of cell division in a contact-inhibited mammalian cell line. J. Cell Physiol. (1965) 66: 325-33]. This method is based on the observation that, upon creation of a new artificial gap or “scratch”, on a confluent cell monolayer, the cells on the edge of the newly created gap will move toward the opening to close the “scratch” until new cell-cell contacts are established. One of the major advantages of this simple method is that it mimics to some extent migration of cell in vivo. For example, removal of part of the endothelium in blood vessels will induce migration of endothelial cells (ECs) into the denuded area to close the wound [Haudenschild, C. et al. Endothelial regeneration. II. Restitution of endothelial continuity. Lab. Invest. (1979) 41: 407-18]. Furthermore, the patterns of migration either as a loosely connected population (e.g., fibroblasts) or as sheets of cells (e.g., epithelial and EECs) also mimic the behavior of these cells during migration in vivo. The scratch assay is particularly suitable to study the regulation of cell migration by cell interaction with extracellular matrix (ECM) and cell-cell interactions.
For the wound-healing assay, HaCaT keratinocytes were seeded overnight in DMEM medium supplemented with 10% fetal bovine serum (FBS) at 80% confluence (190,000 cells per well. The next day, a 2 mm wound was made over the confluent monolayer using a 1 ml pipete tip. Test samples were added to the HaCaT cells, supplemented with 0.5% FBS. The untreated control was 0.5% FBS.
Images were taken before and after 24 hours of treatment, and wound area was quantified using ImageJ software. All data were statistically analyzed.
For seeding cells, cell numbers and viability were determined using Trypan-Blue staining; cells were counted in a Bürker chamber under the microscope. Human keratinocytes (HaCaT cells) were seeded overnight in DMEM medium supplemented with 10% fetal bovine serum (FBS).
Parallel lines were drawn at the bottom of the wells (3 mm separated lines outside the plate). These lines were used as boundaries for scratch images, thus providing an accurate analysis in each well. Cells were seeded at 190,000 cells/well to promote the formation of a monolayer and kept at 37 C for 24 h. Then, 2 mm-wide wounds were made in the confluent monolayer. Wells were washed once with PBS and refilled with DMEM+0.5% FBS. Basal images were taken immediately using a microscope. […] In addition, human epidermal growth factor (hEGF) at 20 ng/ml was included as a positive control, and 0.5% FBS as a basal control.
Plates were placed in the 37° C. incubator and incubated for 24 h to allow the scratch to heal. Microscopic images are shown below. One biological replicate was performed and four technical replicates per condition were used.
Data analysis was performed using ImageJ software. Microscopic images are shown in Results. Statistical analysis (ordinary one-way ANOVA test) was performed to determine the significance between tested samples and basal control.
The percentage of wound area in each well at 24 hr was calculated by dividing the wound area at 24 hr and the wound area immediately after making the wound. The mean value for the four replicates in the Basal Control (untreated) group was obtained and used to normalize each measure in all of the samples and conditions. A bar graph was generated to represent the wound area or wound healing in each of the tested conditions.

[3] abbreviates: experiment with RS-0198A and RS-0198B.

Where “and” joins values, the source holds several entries; their conditions need not be identical. Equal entries are not always repeated. Entries after “also recorded” stand apart in the source; their conditions may differ.

In the case of `CCN(CC)CC(=O)Nc1c(C)cccc1C` [lidocaine], the “patients with reduced dyspareunia” value in assay [1] was 90%.

With “EGF: human epidermal growth factor, positive control at 20 ng/ml”, in assay [2], the “wound area Basal (0 h)” value was 1324098 pixels and 1346138 pixels and 1134400 pixels and 1741659 pixels; the “% area wound 24 h” value is 19.877% and 29.524% and 18.706% and 6.405%; the “% relative Area to Control 24 h” value was 42.310% and 62.846% and 39.818% and 13.633%; the “% wound healing 24 h” value is 57.690% and 37.154% and 60.182% and 86.367%. Further, the “wound area 24 h” value in assay [2] was 263185 pixels and 397433 pixels and 212198 pixels and 111545 pixels. In assay [2] (listed as C + EGF), the “wound area Basal (0 h)” value is 1188450 pixels and 1278864 pixels and 1237384 pixels and 1227903 pixels; the “% area wound 24 h” value is 27.291% and 2.058% and 0.000% and 5.244%; the “% relative Area to Control 24 h” value was 89.630% and 6.758% and 0.000% and 17.222%; the “% wound healing 24 h” value is 10.370% and 93.242% and 100.000% and 82.778%. Further, in assay [2] (listed as C + EGF), the “wound area 24 h” value is 24456 pixels and 0 pixels (2×) and 64389 pixels. Besides, in assay [2] (experiment with RS012221), the “wound healing enhanced, compared to the untreated control” value is reported as 94.0±8.6% and the Decreased wound area is given as 94.0±8.6%. Moreover, in assay [2] (setting [3]), the “wound healing enhanced, compared to the untreated control” value is 60.4±15.7% and the Decreased wound area worked out at 60.4 ± 15.7%. In addition, in assay [2] (24 hr treatment of HaCaT, compared to the untreated control), the “wound area (result in words)” value is “significantly decreased wound area”. Besides, the “wound healing (result in words)” value in assay [2] (24 h treatment of HaCaT, compared to untreated control, concentrations as in the sentence, listed as hEGF) is listed as “enhanced wound healing; also recorded: boosted wound healing”.
